In patent US10203322B2, “Method for identifying subjects with increased risk of ST-segment elevation myocardial infarction (STEMI) and identifying subjects likely to respond to particular treatments” (Vanderbilt University, priority 2017, dated 2019):

Key:
[1] = tested on: platelets (platelet-rich plasma); assay: Platelet phenotyping: platelet aggregation in platelet-rich plasma by light transmission aggregometry, U46,619 with or without PGE2; type: cell-based, human; settings: PGE2 100 nmol/L preincubated with PRP, sub-maximal U46,619, aggregation recorded 6 min, n=86 (FIG. 1)
Experimental: Measurements of platelet aggregation in PRP were made using light transmission aggregometry using a Chrono-Log lumi-aggregometer (Model 460VS). The aggregometer was calibrated for each sample to read 0-10% light transmission for PRP and 90-100% light transmission for PPP. Aliquots of PRP were placed in siliconized glass cuvettes containing Teflon-coated stir bars and incubated for 2 minutes at 37° C. PRP was preincubated with or without 100 nM PGE2 for 10-20 s before adding U46,619 at various concentrations. Samples were stirred at 800 rpm throughout a 6 minute aggregation run. Experiments were completed within 2 hours of phlebotomy. Percentage aggregation was recorded with Aggrolink software (Chrono-Log) and exported to GraphPad Prism for analysis. For each subject, multiple doses of U46,619 agonist were used to construct a dose response curve according to methods described previously; each U46,619 dose was tested with and without PGE2.
In order to describe the phenotypic observation in a quantitative rather than just qualitative format a continuous variable was constructed as follows: for each dose of U46,619, the aggregation value obtained at the end of the 6 min run in the presence of PGE2 was subtracted from the value obtained without PGE2. The largest difference was reported as the maximum PGE2 effect (maximum difference). […]

[2] = tested on: platelets from an individual with the low threshold phenotype; settings: platelets of low threshold (potentiating) phenotype treated with the EP3 antagonist; ref [6], FIG. 2; cited from earlier work

CCCCC[C@H](O)/C=C/[C@H]1[C@H](O)CC(=O)[C@@H]1C/C=C\CCCC(=O)O [PGE2, Prostaglandin E2]
individuals in whom PGE2 decreases the threshold of platelet activation by the thromboxane agonist U46,619 (inhibitory phenotype) [1]: 56 % of individuals | individuals in whom PGE2 increases the threshold of platelet activation by the thromboxane agonist U46,619 (potentiating phenotype) [1]: 44 % of individuals

Cc1cn(Cc2ccc(Cl)cc2Cl)c2c(/C=C/C(=O)NS(=O)(=O)c3cc(Cl)c(Cl)s3)cc(F)cc12 [DG-041]
shift of PGE2 response phenotype [2]: the phenotype shifts to high threshold
